Test results: US8026342B2, “Compositions and methods for binding sphingosine-1-phosphate” (Lpath, Inc., priority 2006, dated 2011)
Several values for one entry are separate records, joined by “and”; a condition that tells them apart may be missing. Identical values can stand only once.

Columns and labels:
[1] = tested on: HT29 tumor; test: SC HT29 colorectal tumor xenograft; assay type: in vivo, athymic NCr-nu/nu mice; conditions: LT1009 50 mg/kg ip q2d; Avastin 20 mg/kg iv q4d; 5-FU 75 mg/kg ip q4d
Procedure: Nude mice were implanted sc near the right flank with one fragment per mouse of HT29 tumor from an in vivo passage. All treatments were initiated the day when 60 mice in each experiment established tumors ranging in size from approximately 100 to 200 mm^3. There were ten mice per treatment group. […] 75 mg/kg 5-FU and 20 mg/kg Avastin were administered ip and iv at a dosage of 75 mg/kg/dose and 20 mg/kg/dose, respectively, q4d, injected in a volume of 0.1 mL/10 g body weight.
(§1) Animals were observed daily for mortality. Tumor dimensions and body weights were collected twice weekly starting with the first day of treatment and including the day of study termination. When the median tumor in the vehicle-treated control group in each study reached approximately 4,000 mg, the study was terminated. Tumors from each animal were harvested, wet weights were recorded, and tumors were processed for determination of MVD by CD-31 staining. Tumor weights (mg) were calculated using the equation for an ellipsoid sphere (l×w^2)/2=mm^3, where l and w refer to the larger and smaller dimensions collected at each measurement and assuming unit density (1 mm^3=1 mg).

[2] = tested on: RPMI 8226 tumor; test: RPMI 8226 human myeloma tumor xenograft; assay type: in vivo, CB17 SCID mice; conditions: LT1009 50 mg/kg IP Q3D to end; Bortezomib iv Q3D×6
Procedure: Nude mice (CB17 SCID, aged 4-5 weeks, weight 18-22 gm, female mice obtained from Harlan) were injected sc with RPMI 8226 cells harvested from tissue culture (˜1×10^7 cells/mouse). When tumors grew to approximately 100 mm^3 in size, animals were pair-matched by tumor size into treatment and control groups (10 mice per group). Initial dosing began Day 1 following pair-matching. Animals in all groups were dosed by weight (0.01 ml per gram; 10 ml/kg). […] Bortezomib was administered by intravenous injection via tail vein once every three days for six treatments (Q3D×6).
Individual and group mean tumor volumes±SEM are recorded twice weekly until study completion beginning Day 1. Final mean tumor volume±SEM for each group are reported at study completion; animals experiencing partial or complete tumor regressions or animals experiencing technical or drug-related deaths are censored from these calculations.

[3] = tested on: COLO205 tumor; test: SC COLO205 colorectal tumor xenograft; assay type: in vivo, nude NCr (nu/nu) mice; conditions: LT1009 50 mg/kg ip q3d; Avastin 40 mg/kg iv q7d; Paclitaxel 15 mg/kg iv q1d×5
Procedure: Nude mice were implanted sc near the right flank with one fragment per mouse of COLO 205 tumor from an in vivo passage. All treatments were initiated the day when 60 mice in each experiment established tumors ranging in size from approximately 100 to 200 mm3. […] Avastin was administered iv at a dosage of 40 mg/kg/dose on a q7d schedule, injected in a volume of 0.1 mL/20 g body weight. Paclitaxel (positive control), was administered iv at a dosage of 15 mg/kg/dose on a q1d×5 schedule, injected in a volume of 0.1 mL/10 g body weight.
as §1, with “recorded,” for “recorded, and”, “microvascular densities (MVD)” for “MVD”

[4] = tested on: DU145 tumor; test: SC DU145 prostate tumor xenograft; assay type: in vivo, nude NCr (nu/nu) mice; conditions: LT1009 50 mg/kg ip q2d; Avastin 20 mg/kg q4d; Paclitaxel 7.5 mg/kg q1d×5
Procedure: Nude mice were implanted sc near the right flank with one fragment per mouse of DU145 tumor from an in vivo passage. All treatments were initiated the day when 60 mice in each experiment established tumors ranging in size from approximately 100 to 200 mm^3. […] Paclitaxel and Avastin were administered iv and ip at a dosage of 7.5 mg/kg/dose and 20 mg/kg/dose, q1d×5 and q4d, respectively, injected in a volume of 0.1 mL/10 g body weight.
During the course of the study tumor growth was monitored by measuring the sc tumors on three axes and calculating the volume. At the end of the study final tumor weights and volumes were determined and then the mice were sacrificed, the tumors harvested. Microvascular densities (MVD) of the tumors were then determined by CD-31 staining.

[5] = tested on: experimental autoimmune encephalomyelitis; conditions: 0.1 mg/kg p.o. or higher doses; cited from earlier work
[6] = tested on: peripheral lymphocytes; conditions: single oral dose; cited from earlier work
[7] = tested on: HUVECs; test: HUVEC Matrigel chemoinvasion (migration) assay; assay type: cell-based, human; conditions: 0.1-1 μM S1P
Procedure: FIG. 5 has two panels, A and B. In panel A, S1P is shown to promote neovascularization through induction of HUVECs tube formation and migration, which is reduced by SPHINGOMAB. […] The number of cells that migrated to the Matrigel membrane were counted in five independent fields.
Experiments were performed as described by Visentin et al. (Cancer Cell 2006 March; 9(3):225-38).

[8] = tested on: Matrigel plug neovascularization; test: In vivo Matrigel plug assay for neovascularization (S1P, VEGF, bFGF); set-up: species or system mice; conditions: Matrigel with 1 μM S1P
Procedure: Based on in vivo studies showing that S1P increased endothelial capillary growth into subcutaneously implanted Matrigel plugs, we speculated that SPHINGOMAB could reduce de novo BV formation in vivo. To investigate this, we employed the in vivo Matrigel Plug assay for neovascularization. In one set of experiments, Matrigel was supplemented with either 1 μM S1P, 0.5 μg/mL bFGF or 1 μg/mL VEGF and then […]. into mice (n=4). After 10 days, the mice were heparinized and injected with the fluorescent lectin, Isolectin B4-FITC, which binds to adhesion molecules expressed by vascular EC that form the growing BVs. The plugs were then excised, frozen in OCT, sectioned and viewed for FITC-stained BVs.
Sections of the plugs were then stained with hemotoxyln & eosin for evaluation of EC infiltration (FIG. 6B). The infiltration of ECs is a critical step in neo-vascularization. […] Cell infiltration is presumed to be ECs although we recognize that other cell types such as immune cells may also be stained.
Endogenous S1P from the blood and surrounding tissue could supply a wound with pro-angiogenic stimuli. The ability of SPHINGOMAB to reduce endogenous S1P in a wound was investigated. Optimally stimulated plugs (Matrigel supplemented with 0.5 μg/mL bFGF or […] VEGF) were implanted into mice. Mice received i.p. injections of 25 mg/kg SPHINGOMAB or saline every 48 hrs starting 1 day prior to Matrigel implantation. Each treatment group (Matrigel, Matrigel plus GF or Matrigel plus GF and administered SPHINGOMAB) consisted of a minimum of 6 mice. After 10 days, the mice were treated with heparin, injected with Isolectin B4-FITC, the plugs excised, embedded in OCT freezing medium and sectioned.

[9] = tested on: human retinal pigmented epithelial cells; test: alpha-SMA expression (myofibroblast transformation) in retinal pigmented epithelial cells; assay type: cell-based
Source text: (§2) In many of these disorders, circulating growth factors and chemokines promote the transformation of normal ocular cells into fibrocontractile, scar tissue-producing cells that have been termed “myofibroblasts”. Normally, myofibroblasts are responsible for tissue repair as part of the wound healing response following injury. However altered number and function of myofibroblasts are implicated in diseases characterized by pathological scar tissue formation in the liver, skin, lung, kidney, heart and eyes. In the eye, transformation of retinal pigmented epithelial (RPE) cells to a myofibroblast phenotype is linked to formation of fibro-contractile membranes which cause retinal detachment and subsequent vision impairment. In addition, myofibroblast transformation of ocular fibroblasts can result in abnormal scar tissue production after eye injury leading to subsequent vision loss. Although many of the circulating protein factors in the eye that promote myofibroblast formation have been identified, nothing is known regarding the role of lysolipids such as S1P in this process. Therefore, we examined the effects of S1P on myofibroblast transformation of several human ocular cell lines.
In these experiments, the ability of S1P to promote α-SMA expression differed in a concentration dependent manner between the retinal pigmented epithelial cells and conjunctiva fibroblasts. […]

[10] = tested on: human conjunctiva fibroblasts; test: alpha-SMA and PAI-1 expression in conjunctiva fibroblasts; assay type: cell-based
Source text: as §2
In these experiments, the ability of S1P to promote α-SMA expression differed in a concentration dependent manner between the retinal pigmented epithelial cells and conjunctiva fibroblasts. […] This difference is believed to result from increased S1P receptor expression in the epithelial cells compared to the fibroblasts. Due to increased S1P receptor expression levels, retinal pigmented epithelial cells are likely more sensitive to S1P at low concentrations. In contrast, at high S1P levels the receptors become […] or possibly even internalized leading to decreased stimulation by S1P.
Collagen is one of the primary structural proteins that supports all tissues in the body and is one of the main components of scar tissue. In the non-pathological setting, total collagen content within tissue is maintained via a balance between collagen production by fibroblasts and degradation by certain enzymes. […]

[11] = tested on: exudative AMD; conditions: 2 year MARINA trial and 1 year ANCHOR trial; cited from earlier work

## O=c1[nH]cc(F)c(=O)[nH]1 [5-FU, 5-fluorouracil]
[1]
  % Reduction compared to Vehicle-Treated Mice: 28%
  Final Tumor Weights: 1963.71 mg

## CC(C)C[C@H](NC(=O)[C@H](Cc1ccccc1)NC(=O)c1cnccn1)B(O)O [Bortezomib, reference compound]
[2]
  % Reduction compared to Vehicle-Treated Mice: 20%
  Final Tumor Weights: 1664 mg

## CC(=O)O[C@H]1C(=O)[C@@]2(C)[C@H]([C@H](OC(=O)c3ccccc3)[C@]3(O)C[C@H](OC(=O)[C@H](O)[C@@H](NC(=O)c4ccccc4)c4ccccc4)C(C)=C1C3(C)C)[C@]1(OC(C)=O)CO[C@@H]1C[C@@H]2O [Paclitaxel]
[3]
  % Reduction compared to Vehicle-Treated Mice: 100%
  Final Tumor Weights: 0 mg
[4]
  % Reduction compared to Vehicle-Treated Mice: 80%
  Final Tumor Weights: 539 mg

## CCCCCCCCc1ccc(CCC(N)(CO)CO)cc1.Cl [FTY720, 2-amino-2-(2-[4-octylphenyl]ethyl)-1,3-propanediol hydrochloride]
[5]
  paralysis in EAE: almost completely prevents paralysis
[6]
  reduction of peripheral lymphocyte counts: 30-70%

## CCCCCCCCCCCCC/C=C/[C@@H](O)[C@@H](N)COP(=O)(O)O [S1P, sphingosine-1-phosphate]
[7]
  stimulation of HUVEC migration over non-treated HUVECs: 2-2.5 fold
[8]
  increase of EC infiltration in comparison to Matrigel only plugs: 3 fold
[9]
  S1P concentration at which a significant increase in α-SMA expression was observed: 0.001 µM
  production of α-Smooth muscle actin (α-SMA): stimulates production
[10]
  PAI-1 expression: stimulates the PAI-1 expression in a dose-dependent manner
  S1P concentration at which a significant increase in α-SMA expression was observed: 10 µM
  production of α-Smooth muscle actin (α-SMA): stimulates production

## Avastin: anti-angiogenic drug, bevacizumab (Avastin, Genentech)
[3]
  % Reduction compared to Vehicle-Treated Mice: 35%
  Final Tumor Weights: 1967.90 mg
[1]
  % Reduction compared to Vehicle-Treated Mice: 30%
  Final Tumor Weights: 1927.44 mg
[4]
  % Reduction compared to Vehicle-Treated Mice: 80% and 79%
  Final Tumor Weights: 578 mg

B1: RANIBIZUMAB: antibody fragment inhibiting all isoforms of VEGF-A (antibody, chains of the INN, looked up, V domains shown)
VH: EVQLVESGGGLVQPGGSLRLSCAASGYDFTHYGMNWVRQAPGKGLEWVGWINTYTGEPTYAADFKRRFTFSLDTSKSTAYLQMNSLRAEDTAVYYCAKYPYYYGTSHWYFDVWGQGTLVTVSS
VL: DIQLTQSPSSLSASVGDRVTITCSASQDISNYLNWYQQKPGKAPKVLIYFTSSLHSGVPSRFSGSGSGTDFTLTISSLQPEDFATYYCQQYSTVPWTFGQGTKVEIK
modifications: Fab
[11]
  patients achieving some visual gain: approximately 40%
